From patent publication US20150359815A1, “PAK1 INHIBITION FOR TREATMENT OF ACUTE MYELOID LEUKEMIA AND MYELODYSPLASTIC SYNDROMES” (ALBERT EINSTEIN COLLEGE OF MEDICINE OF YESHIVA UNIVERSITY, priority 2013, published 2015)

Assays:
HL60 AML cells = assay: Cell proliferation assay, HL60 AML cells; assay type: cell-based, human; conditions: FIG. 2, FIG. 3
Description: (§1) Cell proliferation, cell cycle, and apoptosis assays. For cell proliferation assays, manual cell counts were performed by culturing cells in 24- or 48-well plates. Viable cells were counted using trypan blue exclusion and cell density was re-adjusted in each well every 3-5 days. For cell cycle assays, the Click-iT™ EdU Flow Cytometry Assay system (Invitrogen) was used following the manufacturer's instructions. For apoptosis assays, apoptotic and necrotic cells were analyzed by use of Annexin V/DAPI staining.

THP1 AML cells [1] = assay: Cell proliferation assay, THP1 AML cells; assay type: cell-based, human; conditions: FIG. 2, FIG. 7
Description: as §1

KG1a AML cells = assay: Cell proliferation assay, KG1a AML cells; assay type: cell-based, human; conditions: FIG. 2
Description: as §1

MOLM13 = assay: Cell proliferation assay, MOLM13 AML cells; assay type: cell-based, human; conditions: FIG. 2
Description: as §1

AML cells [2] = assay: Colony formation assay, AML cells; assay type: cell-based; conditions: FIG. 4
Description: (§2) Colony, formation assays and serial replating assays. Assays were performed in MethoCult M3434 (Stern Cell Technologies, Vancouver, BC) containing IL-3, IL-6, SCF, and EPO or in MethoCult M3234 supplemented with M-CSF or GM-CSF as previously described (Higuchi et al, 2002; Huntly et al, 2004;Will et al, 2009). GFP+ colonies were scored 8-10 days after plating using an AXIOVERT 200M microscope (Zeiss, Maple Grove, Minn.). After scoring, GFP+ cells were re-sorted after each round and then serial replating assays were carried out. Cells were replated and colonies were again scored after 10-14 days.

[3] = system: AML and MDS cells isolated from the bone marrow of AML and MDS patients; assay: Growth of primary patient AML/MDS cells versus healthy donor hematopoietic cells; assay type: cell-based, human; conditions: primary bone marrow and peripheral blood samples; *p<0.05, **p<0.01; FIG. 5
Description: The experiments illustrated in FIG. 5 were performed using primary bone marrow and peripheral blood samples given by healthy donors and by patients with acute myeloid leukemia.

AML cells [4] = assay: Apoptosis assay (Annexin V/DAPI), AML cells; assay type: cell-based; conditions: 24 hours of incubation, FIG. 6
Description: FIG. 6. […] 24 hours of incubation with Compound 1 (assay by Annexin V/DAPI), Black—Percentage of live cells; Grey—Percentage of apoptotic cells.
as §1

[5] = system: cells from a patient with myelodysplastic syndrome (MDS); assay: Colony formation of cells from a patient with myelodysplastic syndrome; assay type: cell-based, human; conditions: FIG. 8
Description: FIG. 8. Compound 1-mediated inhibition of PAK1: effects on colony formation of cells from a patient with myelodysplastic syndrome (MDS). Inhibition of PAKI is effective in both myelodysplastic syndrome (MDS) and acute myeloid leukemia (AML).
as §2
FIG. 8 illustrates Compound 1-mediated inhibition of PAK1 effects on colony formation of cells from a patient with myelodysplastic syndrome (MDS) Inhibition of PAK1 is effective in both myelodysplastic syndrome (MDS) and acute myeloid leukemia (AML). See also FIG. 5.

[6] = system: downstream signaling pathways of PAK1; assay: Phosphorylation status of kinases in THP1 leukemia cells; assay type: cell-based, human; conditions: 4 hours, 6 μg/ml IPA-3 vs DMSO, FIG. 9
Source text: FIG. 9. Effect of Compound 1 (IPA-3) on downstream signaling pathways of PAKI.
(§3) In contrast, STAT4 expression is increased upon treatment with Compound 1 or PAK1 shRNA knockdown in THP1 cells (FIG. 10).

STAT4 = STAT4 expression in THP1 cells (Western Blot, qRT-PCR); assay type: cell-based, human; conditions: FIG. 10
Description: FIG. 10A-10B. STAT4 expression is increased upon treatment with Compound 1 (IPA-3) or PAKI shRNA knockdown in THP1 cells. A) Western Blot; B) qRT-PCR.
Quantitative real-time PCR. Total RNA was extracted from FACS-sorted cells or cultured cells using RNeasy Micro kit (Qiagen, Valencia, Calif.). cDNA was synthesized by Superscript II reverse transcriptase (Invitrogen, Carlsbad, Calif.). Real-time PCR was performed using an iQ5 real-time PCR detection system (BIO-RAD, Hercules, Calif.) with 1 cycle of 50° C. (2 min) and 95° C. (10 min) followed by 40 cycles of 95° C. (15 sec) and 60° C. (1 min) using Power SYBR Green PCR master mix (AB, Carlsbad, Calif.).
Western blotting. Total cell lysates were extracted in lysis buffer (50 mM Tris-Cl (pH 7.5), 1 mM EDTA, 150 mM NaCl, 1%NP-40, 1% sodium deoxycholate, 1 mM PMSF, and protease inhibitor (Roche)). Anti-Hlx polyclonal rabbit antibody (SantaCruz, clone H-130, sc-135014) and anti-actin polyclonal goat antibody (Santa Cruz, clone C-11, sc1615) were used as primary antibodies, […] anti-rabbit or anti-goat antibody (Santa Cruz) were used as secondary antibodies. ECL solution (Pierce) was used for detection.
as §3

THP1 AML cells [7] = assay: Survival of mice injected with THP1 cells expressing PAK1 shRNA; assay type: in vivo; conditions: for liver infiltration of leukemia cells: animals receiving THP1 with shRNA vs control cells, not illustrated; for survival of mice: mice injected with 300,000 THP1 cells expressing shRNA, vs non-silencing control shRNA, FIG. 12B
Description: FIG. 12A-12B, Evaluation of PAK1 expression reduction in THP1 AML cells by shRNAs, A) Evaluated mRNA levels by RT-gPCR.
The effects on survival of reduced PAK1 expression in THP1 AML cells when expression was reduced by shRNAs was evaluated in mice.

Oc1ccc2ccccc2c1SSc1c(O)ccc2ccccc12 [Compound 1, 1,1′-Disulfanediyldinaphthalen-2-ol]
proliferation of HL60 AML cells (HL60 AML cells): reduces proliferation | proliferation of THP1 AML cells (THP1 AML cells [1]): reduces proliferation | proliferation of KG1a AML cells (KG1a AML cells): reduces proliferation | proliferation of MOLM13 AML cells (MOLM13): reduces proliferation | colony formation ability of AML cells (AML cells [2]): reduces colony formation ability | effect on growth of AML and MDS patient cells compared with healthy hematopoietic cells [3]: greater effect | apoptosis in AML cells (AML cells [4]): induces apoptosis | colony formation of cells from a patient with MDS [5]: effective | several additional oncogenic signaling pathways (kinase phosphorylation status) [6]: significantly inhibited | STAT4 expression (STAT4): increased

Cc1nc(Nc2n[nH]c3c2CN(C(=O)N[C@H](CN(C)C)c2ccccc2)C3(C)C)c2sccc2n1 [Compound 2, (S)-N-(2-(dimethylamino)-1-phenylethyl)-6,6-dimethyl-3-((2-methylthieno[3,2-d]pyrimidin-4-yl)amino)-4,6-dihydropyrrolo[3,4-c]pyrazole-5(1H)-carboxamide]
proliferation of THP1 AML cells (THP1 AML cells [1]): reduces proliferation

shRNA #2: short hairpin sequence for human PAK1, GCGATCCTAAGAAGAAATATA, expressed by lentivirus (the letters are possibly those of the target site)
liver infiltration of leukemia cells (THP1 AML cells [7]): Significantly less liver infiltration of leukemia cells | long-term survival of some mice (THP1 AML cells [7]; entire duration of the assay (90 days)): long-term survival | survival of mice (THP1 AML cells [7]): Significant prolongation of survival

shRNA #1: short hairpin sequence for human PAK1, CGATGAGAAATACCAGCACTA, expressed by lentivirus (the letters are possibly those of the target site)
liver infiltration of leukemia cells (THP1 AML cells [7]): Significantly less liver infiltration of leukemia cells | survival of mice (THP1 AML cells [7]): Significant prolongation of survival
